Data from paper PMC11012829 (International Journal of Nanomedicine, 2024).

Legend:
[1] = assay type: in vivo, male Sprague-Dawley rats; conditions: oral, rats; for bioavailability after N-XBSD administration compared to the free drugs: same administration concentration
P-gp = conditions: cited from earlier work

mean AUC0-t increased in the N-XBSD group compared to the free drugs ([1]; N-XBSD vs free drugs) [%] | bioavailability after N-XBSD administration compared to the free drugs [1] | mean AUC0-t in the N-XBSD group versus free drugs group ([1]; p<0.05) | Structure (SMILES) | P-gp substrate (P-gp)
122.73 | significantly higher | – | OC[C@H]1O[C@@H](Oc2cc(O)cc(/C=C/c3ccc(O[C@@H]4O[C@H](CO)[C@@H](O)[C@H](O)[C@H]4O)cc3O)c2)[C@H](O)[C@@H](O)[C@@H]1O [Mulberroside A, mulberroside A] | substrates of P-gp
– | significantly higher | significantly higher | O=C1C[C@@H](c2ccc(O[C@@H]3O[C@H](CO)[C@@H](O)[C@H](O)[C@H]3O)cc2)Oc2cc(O)ccc21 [Liquiritin, liquiritin] | substrates of P-gp
